From ChEMBL document CHEMBL5226347, “Discovery of Chromane-6-Sulfonamide Derivative as a Potent, Selective, and Orally Available Novel Retinoic Acid Receptor-Related Orphan Receptor γt Inverse Agonist” (J Med Chem, 2021)
Values after ≈ are worked out from the molar mass of the structure shown. Active and inactive are the calls of the source. No cut-off for these calls is given here.

Assays:
[1] = Oral bioavailability in mouse at 1 mg/kg measured at 5 to 1440 mins by LC-MS analysis; format: ADME, organism-based; conditions: in vivo, time 5-1440 min
[2] = tested on: Mus musculus; assay: Antiinflammatory activity against imiquimod-induced Balb/c mouse skin inflammation model assessed as reduction in skin thickening at 5 to 20 mg/kg, po BID for 13 days; format: functional, organism-based; conditions: dose 5-20 mg/kg, time 13.0 day
[3] = Metabolic stability in human liver microsomes assessed as parent compound remaining measured at 60 mins by HPLC-MS/MS analysis; format: ADME, Microsome; conditions: 1 h
[4] = Half life in mouse at 0.3 mg/kg, iv measured at 2 to 1440 mins by LC-MS analysis; format: ADME, organism-based; conditions: in vivo, time 2-1440 min
[5] = target: T1, Nuclear receptor ROR-beta (Homo sapiens, UniProt Q92753); assay: Inhibition of human GAL4-fused RORbeta LBD transfected in HEK293T cell measured for 16 to 20 hrs by dual-glo luciferase assay; format: cell-based
T1 sequence (Q92753 whole entry): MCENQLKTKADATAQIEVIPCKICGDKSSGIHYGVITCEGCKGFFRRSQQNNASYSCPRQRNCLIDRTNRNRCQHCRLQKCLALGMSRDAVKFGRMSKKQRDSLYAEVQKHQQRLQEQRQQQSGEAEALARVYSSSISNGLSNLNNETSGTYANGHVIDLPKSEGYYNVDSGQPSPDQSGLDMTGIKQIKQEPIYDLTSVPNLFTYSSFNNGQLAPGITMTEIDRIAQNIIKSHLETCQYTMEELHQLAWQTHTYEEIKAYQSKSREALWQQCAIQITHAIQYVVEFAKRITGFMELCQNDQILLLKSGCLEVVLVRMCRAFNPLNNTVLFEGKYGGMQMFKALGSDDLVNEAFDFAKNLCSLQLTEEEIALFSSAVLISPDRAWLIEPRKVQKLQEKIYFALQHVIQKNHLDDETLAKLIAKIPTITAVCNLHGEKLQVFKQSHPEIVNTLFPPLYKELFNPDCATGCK

[6] = tested on: Mus musculus; assay: Antiinflammatory activity against imiquimod-induced Balb/c mouse skin inflammation model assessed as reduction in total psoriasis area at 20 mg/kg, po BID for 13 days; format: functional, organism-based; conditions: time 13.0 day
[7] = Solubility of compound in aqueous buffer at pH 7.4; format: physicochemical
[8] = Cmax in mouse at 0.3 mg/kg, iv measured at 2 to 1440 mins by LC-MS analysis; format: ADME, organism-based; set-up: time 2-1440 min, dose 0.3 mg/kg, route iv; conditions: in vivo
[9] = AUC (0 to infinity) in mouse at 1 mg/kg, po measured at 5 to 1440 mins by LC-MS analysis; format: ADME, organism-based; set-up: dose 1 mg/kg, time 5-1440 min, route po; conditions: in vivo
[10] = Clearance in mouse at 0.3 mg/kg, iv measured at 2 to 1440 mins by LC-MS analysis; format: ADME, organism-based; conditions: in vivo, time 2-1440 min
[11] = tested on: Mus musculus; assay: Antiinflammatory activity against imiquimod-induced Balb/c mouse skin inflammation model assessed as inhibition of IL-6 level at 20 mg/kg, po measured for 13 days; format: functional; set-up: scale not given: the % may be the effect or the level left; conditions: time 13 day
[12] = AUC (0 to infinity) in mouse at 0.3 mg/kg, iv measured at 2 to 1440 mins by LC-MS analysis; format: ADME, organism-based; set-up: dose 0.3 mg/kg, time 2-1440 min, route iv; conditions: in vivo
[13] = Volume of distribution at steady state in mouse at 0.3 mg/kg, iv measured at 2 to 1440 mins by LC-MS analysis; format: ADME, organism-based; conditions: in vivo, time 2-1440 min, read-out: Vdss
[14] = Metabolic stability in human liver assessed as intrinsic clearance incubated for 5 to 30 mins by HPLC-MS/MS analysis; format: ADME, tissue-based; conditions: liver (preparation not stated), time 5-30 min, read-out: CLH
[15] = Half life in mouse at 1 mg/kg, po measured at 5 to 1440 mins by LC-MS analysis; format: ADME, organism-based; conditions: in vivo, time 5-1440 min
[16] = tested on: Mus musculus; assay: Antiinflammatory activity against imiquimod-induced Balb/c mouse skin inflammation model assessed as reduction in scaling at 5 to 20 mg/kg, po BID for 13 days; format: functional, organism-based; conditions: dose 5-20 mg/kg, time 13.0 day
[17] = Cmax in mouse at 1 mg/kg, po measured at 5 to 1440 mins by LC-MS analysis; format: ADME, organism-based; set-up: time upper 1440 min, time lower 5 min, dose 1 mg/kg, route po; conditions: in vivo
[18] = tested on: Mus musculus; assay: Antiinflammatory activity against imiquimod-induced Balb/c mouse skin inflammation model assessed as reduction in severity index score at 20 mg/kg, po BID for 13 days; format: functional; set-up: scale not given: the % may be the effect or the level left; conditions: time 13 day
[19] = AUC (0 to t) in mouse at 0.3 mg/kg, iv measured at 2 to 1440 mins by LC-MS analysis; format: ADME, organism-based; set-up: time lower 2 min, dose 0.3 mg/kg, time upper 1440 min, route iv; conditions: in vivo
[20] = tested on: Mus musculus; assay: Antiinflammatory activity against imiquimod-induced Balb/c mouse skin inflammation model assessed as inhibition of IL-17A level at 20 mg/kg, po measured for 13 days; format: functional; set-up: scale not given: the % may be the effect or the level left; conditions: time 13 day
[21] = Toxicity in Balb/c mouse assessed as inflammatory cell infiltration at 10 to 20 mg/kg, po administered for 13 days; format: organism-based; conditions: in vivo, 312 h, dose 10-20 mg/kg, time 13 day
[22] = AUC (0 to t) in mouse at 1 mg/kg, po measured at 5 to 1440 mins by LC-MS analysis; format: ADME, organism-based; set-up: time 5-1440 min, dose 1 mg/kg, route po; conditions: in vivo
[23] = Lipophilicity, log D of the compound at pH 7.4; format: physicochemical; conditions: buffer
[24] = tested on: Mus musculus; assay: Antiinflammatory activity against imiquimod-induced Balb/c mouse skin inflammation model assessed as decrease in skin thickening at 10 to 20 mg/kg, po measured for 13 days; format: functional, organism-based; conditions: dose 10-20 mg/kg, time 13.0 day
[25] = Metabolic stability in human liver microsomes assessed as half life incubated for 5 to 30 mins by HPLC-MS/MS analysis; format: ADME, Microsome; conditions: microsomes, time 5-30 min
[26] = Tmax in mouse at 0.3 mg/kg, iv measured at 2 to 1440 mins by LC-MS analysis; format: ADME, organism-based; conditions: in vivo, time 2-1440 min
[27] = Toxicity in Balb/c mouse assessed as body weight loss at 5 to 20 mg/kg, po administered for 12 days; format: organism-based; conditions: in vivo, 288 h, dose 5-20 mg/kg, time 12 day
[28] = Tmax in mouse at 1 mg/kg, po measured at 5 to 1440 mins by LC-MS analysis; format: ADME, organism-based; conditions: in vivo, time 5-1440 min
[29] = tested on: Mus musculus; assay: Antiinflammatory activity against imiquimod-induced Balb/c mouse skin inflammation model assessed as decrease in erythema at 5 to 20 mg/kg, po BID for 13 days; format: functional, organism-based; conditions: dose 5-20 mg/kg, time 13.0 day

CCc1ccc(N(C2CCC2)S(=O)(=O)c2ccc3c(c2)C(O)CC(C2CCOCC2)O3)cc1 (centres undefined)
bioavailability [1]: 55%
Activity [2]: Active
Stability [3]: 45.1%
half-life [4]: 0.87 h
IC50 [5]: > 10 µM
Activity [6]: Active
solubility [7]: 8.68 µg/mL (≈ 18.4 µM)
Cmax [8]: 83 ng/mL
AUC(0-inf) [9]: 298 ng·h/mL
clearance [10]: 38.6 mL/min/kg
Activity [11]: 71.9%
AUC(0-inf) [12]: 163 ng·h/mL
Vd [13]: 1.54 L/kg
CLint scaled [14]: 27.1 mL/min/kg
half-life [15]: 1.32 h
Activity [16]: Active
Cmax [17]: 94 ng/mL
Activity [18]: 70.5%
AUC(0-t) [19]: 153 ng·h/mL
Activity [20]: 37.6%
Activity [21]: Non-Toxic
AUC(0-t) [22]: 285 ng·h/mL
logD [23]: 3.69
Activity [24]: inactive
t1/2 [25]: 0.817 h
Tmax [26]: 1.52 h
Activity [27]: Non-Toxic
Tmax [28]: 2.32 h
Activity [29]: Active
